pIC50: −log10 of the molar value. Blank lines part the entries; values can stand above or below the compound they belong to. Activity calls are given as the source filed them. No cut-off for these calls is given here.
Key:
[1] = Antioxidant activity assessed as DPPH radical scavenging activity measured at 50 to 600 sec by spectrophotometric analysis; type: functional
NIH3T3 [2] = experiment: Cytotoxicity against mouse 3T3 cells assessed as reduction in cell viability at 40 uM measured after 24 hrs relative to control; type: toxicity, cell-based; conditions: nih3t3, 24 h
NIH3T3 [3] = experiment: Induction of apoptosis in mouse 3T3 cells assessed as increase in necrotic cells at 0.1 to 1 microM incubated for 24 hrs by Annexin V/PI staining based fluorescence microscopic analysis; type: toxicity, cell-based; conditions: nih3t3, 24 h, dose 0.1-1 µM
[4] = Selectivity index, ratio of IC50 for mouse 3T3 cells to IC50 for mouse J774.A1 cells
A549 = experiment: Cytotoxicity against human A549 cells assessed as reduction in cell viability measured after 24 hrs; type: functional, cell-based; conditions: A549, 24 h
[5] = Selectivity index, ratio of IC50 for mouse 3T3 cells to IC50 for human HepG2 cells; type: toxicity; conditions: 3T3 cells and HepG2 cells, read-out: Ratio IC50
[6] = Selectivity index, ratio of IC50 for mouse 3T3 cells to IC50 for mouse RAW264.7 cells
[7] = Cytotoxicity against human OVCAR cells assessed as reduction in cell viability measured after 24 hrs; type: functional, cell-based
[8] = Selectivity index, ratio of IC50 for mouse 3T3 cells to IC50 for human OVCAR cells
[9] = Genotoxicity in mouse 3T3 cells assessed as primary DNA damage at 0.1 to 5 microM incubated for 24 hrs by comet assay; type: toxicity, cell-based; conditions: nih3t3, 24 h, dose 0.1-5 µM
[10] = Selectivity index, ratio of IC50 for mouse 3T3 cells to IC50 for human A549 cells; type: toxicity; conditions: 3T3 cells and A549 cells, read-out: Ratio IC50
[11] = Selectivity index, ratio of IC50 for mouse 3T3 cells to IC50 for human SiHa cells; type: toxicity; conditions: 3T3 cells and SiHa cells, read-out: Ratio IC50
SiHa = experiment: Cytotoxicity against human SiHa cells assessed as reduction in cell viability measured after 24 hrs; type: functional, cell-based
MCF7 [12] = experiment: Cytotoxicity against human MCF7 cells assessed as reduction in cell viability measured after 24 hrs; type: functional, cell-based; conditions: MCF7, 24 h
MCF7 [13] = experiment: Potency index, ratio of hymecromone IC50 to test compound IC50 for cytotoxicity against human MCF7 cells assessed as reduction in cell viability measured after 24 hrs; type: functional
[14] = Genotoxicity in mouse 3T3 cells assessed as cell death at 0.1 to 5 microM incubated for 24 hrs by LMW comet assay; type: toxicity, cell-based; conditions: nih3t3, 24 h, dose 0.1-5 µM
J774.A1 = experiment: Cytotoxicity against mouse J774.A1 cells assessed as reduction in cell viability measured after 24 hrs; type: functional, cell-based; conditions: J774.A1, 24 h
RAW264.7 = experiment: Cytotoxicity against mouse RAW264.7 cells assessed as reduction in cell viability measured after 24 hrs; type: functional, cell-based; conditions: RAW264.7, 24 h
[15] = Cytotoxicity against mouse 3T3 cells assessed as reduction in cell viability measured after 24 hrs; type: toxicity, cell-based; conditions: NIH3T3 cells
HepG2 = experiment: Cytotoxicity against human HepG2 cells assessed as reduction in cell viability measured after 24 hrs; type: functional, cell-based; conditions: HepG2, 24 h
NIH3T3 [16] = experiment: Induction of apoptosis in mouse 3T3 cells assessed as increase in early apoptotic cells at 0.1 to 1 microM incubated for 24 hrs by Annexin V/PI staining based fluorescence microscopic analysis; type: toxicity, cell-based; conditions: nih3t3, 24 h, dose 0.1-1 µM
NIH3T3 [17] = experiment: Antioxidant activity in mouse 3T3 cells assessed as reduction in ROS level at 0.1 to 5 uM incubated for 24 hrs by DCFH-DA dye based fluorescence microplate reader analysis; type: functional, cell-based; conditions: dose 0.1-5 µM
[18] = Selectivity index, ratio of IC50 for mouse 3T3 cells to IC50 for human MCF7 cells; type: toxicity; conditions: 3T3 cells and MCF7 cells, read-out: Ratio IC50
NIH3T3 [19] = experiment: Disruption of mitochondrial membrane potential in mouse 3T3 cells at 0.1 to 5 uM incubated for 24 hrs by […] inclusion assay; type: toxicity, cell-based; conditions: nih3t3, 24 h, dose 0.1-5 µM
NIH3T3 [20] = experiment: Induction of apoptosis in mouse 3T3 cells assessed as increase in late apoptotic cells at 1 microM incubated for 24 hrs by Annexin V/PI staining based fluorescence microscopic analysis; type: toxicity, cell-based; conditions: nih3t3, 24 h

Compound: Cc1cc(=O)oc2cc(OCCn3cc(COc4cccc5c(C)cc(=O)oc45)nn3)ccc12
Activity (NIH3T3 [2]): Non-Toxic
Activity (NIH3T3 [3]): Non-Toxic
Ratio IC50 [4]: 0.001
pIC50 (A549): < 4.00
selectivity ratio [5]: 0.221
Ratio IC50 [6]: 2.33
pIC50 [7]: < 4.00
Ratio IC50 [8]: 0.012
Activity [9]: Non-Toxic
selectivity ratio [10]: 0.175
selectivity ratio [11]: 0.001
pIC50 (SiHa): < 4.00
pIC50 (MCF7 [12]): 5.30
Ratio IC50 (MCF7 [13]): 5
Activity [14]: Non-Toxic
pIC50 (J774.A1): < 4.00
pIC50 (RAW264.7): 5.08
IC50 at 24 h [15]: > 40 µM
pIC50 (HepG2): 4.05
Activity (NIH3T3 [16]): Toxic
Activity (NIH3T3 [17]): Active
selectivity ratio [18]: > 7.93
Activity (NIH3T3 [19]): Toxic

Compound: Cc1cc(=O)oc2cc(OCCn3cc(CO)nn3)ccc12
Activity (NIH3T3 [3]): Non-Toxic
Ratio IC50 [4]: 0.037
pIC50 (A549): < 4.00
selectivity ratio [5]: 0.031
Ratio IC50 [6]: 0.025
pIC50 [7]: < 4.00
Ratio IC50 [8]: < 0.001
Activity [9]: Non-Toxic
selectivity ratio [10]: 0.017
selectivity ratio [11]: 0.002
pIC50 (SiHa): < 4.00
pIC50 (MCF7 [12]): 5.00
Ratio IC50 (MCF7 [13]): 5
Activity [14]: Non-Toxic
pIC50 (J774.A1): < 4.00
pIC50 (RAW264.7): 5.29
IC50 at 24 h [15]: 5.21 µM
pIC50 (HepG2): < 4.00
Activity (NIH3T3 [16]): Toxic
Activity (NIH3T3 [17]): Active
selectivity ratio [18]: 0.516
Activity (NIH3T3 [19]): Non-Toxic

Compound: Cc1cc(=O)oc2cc(OCCn3cc(CCN4C(=O)c5ccccc5C4=O)nn3)ccc12
Activity (NIH3T3 [3]): Non-Toxic
pIC50 (A549): 4.09
selectivity ratio [5]: 0.007
pIC50 [7]: 4.04
Activity [9]: Non-Toxic
selectivity ratio [10]: 0.007
selectivity ratio [11]: < 0.001
pIC50 (SiHa): < 4.00
pIC50 (MCF7 [12]): 5.58
Ratio IC50 (MCF7 [13]): 5
Activity [14]: Non-Toxic
pIC50 (J774.A1): 4.40
IC50 at 24 h [15]: 0.62 µM
pIC50 (HepG2): 4.06
Activity (NIH3T3 [16]): Toxic
Activity (NIH3T3 [17]): inactive
selectivity ratio [18]: 0.233
Activity (NIH3T3 [19]): Toxic

Compound: Cc1cc(=O)oc2cc(OCCn3cc(-c4ccccc4)nn3)ccc12
Activity (NIH3T3 [3]): Non-Toxic
Ratio IC50 [4]: 0.072
pIC50 (A549): < 4.00
selectivity ratio [5]: 0.014
pIC50 [7]: < 4.00
Ratio IC50 [8]: 0.004
Activity [9]: Non-Toxic
selectivity ratio [10]: 0.007
selectivity ratio [11]: < 0.001
pIC50 (SiHa): < 4.00
pIC50 (MCF7 [12]): 5.55
Ratio IC50 (MCF7 [13]): 5
Activity [14]: Non-Toxic
pIC50 (J774.A1): 4.48
IC50 at 24 h [15]: 2.41 µM
pIC50 (HepG2): < 4.00
Activity (NIH3T3 [16]): Toxic
Activity (NIH3T3 [17]): inactive
selectivity ratio [18]: 0.845
Activity (NIH3T3 [19]): Toxic
Activity (NIH3T3 [20]): Toxic

Continued, in another order:

pIC50 [1]: 4.48
Compound: Cc1cc(=O)oc2c(O)c(O)ccc12 [4-METHYLDAPHNETIN]

pIC50 [1]: 4.76
Compound: Cc1cc(=O)oc2c(O)c(O)cc(C(=O)O)c12

pIC50 [1]: 4.60
Compound: O=c1ccc2cc(O)c(O)cc2o1 [ESCULETIN]

Ratio IC50 [4]: 0.171
Ratio IC50 [8]: 0.021
Compound: Cc1cc(=O)oc2cc(O)ccc12 [HYMECROMONE]
Activity (NIH3T3 [3]): Non-Toxic
pIC50 (A549): < 4.00
selectivity ratio [5]: 0.161
pIC50 [7]: < 4.00
Activity [9]: Non-Toxic
selectivity ratio [10]: 0.155
selectivity ratio [11]: 0.011
pIC50 (SiHa): < 4.00
pIC50 (MCF7 [12]): 4.26
Activity [14]: Non-Toxic
pIC50 (J774.A1): < 4.00
IC50 at 24 h [15]: 24 µM
pIC50 (HepG2): < 4.00
Activity (NIH3T3 [16]): Toxic
Activity (NIH3T3 [17]): Active
selectivity ratio [18]: 0.438
Activity (NIH3T3 [19]): Non-Toxic

Reference: ChEMBL document CHEMBL5257152, “Antiproliferative activity and toxicity evaluation of 1,2,3-triazole and 4-methyl coumarin hybrids in the MCF7 breast cancer cell line” (RSC Med Chem, 2023)
